Assay results reported in patent publication US20240360146A1, “BRUTON'S TYROSINE KINASE AND MUTANT DEGRADER, COMPOSITION AND APPLICATION THEREOF” (HANGZHOU HEALZEN THERAPEUTICS CO., LTD., priority 2021, published 2024).

Target: T1, BTK (Homo sapiens, UniProt Q06187)
T1 construct: endogenous in cells; host or cells: Mino cells
Test: BTK degradation activity test in Mino cells
Type: cell-based
Settings: 16 h incubation, Western blot or Elisa
Description: Mino cell line cells were seeded at 500,000 to 1,000,000 cells/well in a 6-well plate. The compounds were diluted to different concentrations and added to the plate, and after 16 h of incubation, cells were harvested. After lysing the cells, the total protein concentration in each well was determined using the BCA method. The amount of BTK was determined using Western blot or Elisa method. The amount of undegraded BTK protein at each drug concentration was compared with the amount of BTK protein in the blank control group to calculate the degradation rate. The degradation curve was drawn based on the degradation rate at each concentration, and the half degradation concentration (DC50) was calculated by fitting.

T1 sequence (Q06187 whole entry): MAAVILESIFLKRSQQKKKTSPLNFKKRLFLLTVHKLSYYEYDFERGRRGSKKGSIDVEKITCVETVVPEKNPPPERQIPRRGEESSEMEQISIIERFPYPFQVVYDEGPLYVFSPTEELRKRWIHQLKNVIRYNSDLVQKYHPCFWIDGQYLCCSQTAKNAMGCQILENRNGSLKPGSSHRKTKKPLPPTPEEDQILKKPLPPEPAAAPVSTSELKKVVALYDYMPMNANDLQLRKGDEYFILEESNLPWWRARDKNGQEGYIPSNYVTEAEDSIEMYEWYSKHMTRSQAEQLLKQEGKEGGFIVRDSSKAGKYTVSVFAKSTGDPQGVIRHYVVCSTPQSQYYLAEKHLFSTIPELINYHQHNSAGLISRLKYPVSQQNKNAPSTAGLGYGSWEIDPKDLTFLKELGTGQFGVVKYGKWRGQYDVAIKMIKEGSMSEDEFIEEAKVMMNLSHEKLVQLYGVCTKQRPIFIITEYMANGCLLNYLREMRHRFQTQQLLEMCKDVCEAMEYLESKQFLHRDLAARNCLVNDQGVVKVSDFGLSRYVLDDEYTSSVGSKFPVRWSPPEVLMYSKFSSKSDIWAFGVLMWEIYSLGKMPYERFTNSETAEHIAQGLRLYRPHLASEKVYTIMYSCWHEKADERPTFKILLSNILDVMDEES

DC50 [nM]	SMILES
< 1	CC1(c2ccc(Nc3nc(N4CCCC(N5CCN(C6CCCC6)C5=O)C4)cnc3C(N)=O)cc2)CCN(C2CN(c3ccc(NC4CCC(=O)NC4=O)cn3)C2)CC1 (stereo not drawn) [Compound 021]
< 1	Cn1c(=O)n(C2CCC(=O)NC2=O)c2cccc(N3CC(N4CCC(C)(c5ccc(Nc6nc(N7CCCC(N8CCN(C9CCCC9)C8=O)C7)cnc6C(N)=O)cc5)CC4)C3)c21 (stereo not drawn) [Compound 022]
> 1	CC1(c2ccc(Nc3nc(N4CCCC(N5CCN(C6CCCC6)C5=O)C4)cnc3C(N)=O)cc2)CCN(C2CN(c3ccc4c(=O)n(C5CCC(=O)NC5=O)ccc4c3)C2)CC1 (stereo not drawn) [Compound 023, 5-(3-(3-cyclopentyl-2-oxoimidazolin-1-yl)piperidin-1-yl)-3-((4-(1-(1-(2-(2,6-dioxopiperidin-3-yl)-1-oxo-1,2-dihydroisoquinolin-6-yl)azetidin-3-yl)-4-methylpiperidin-4-yl)phenyl)amino)pyrazin-2-carboxamide]
< 1	Cn1c(=O)n(C2CCCN(c3cnc(C(N)=O)c(Nc4ccc(C5(C)CCN(C6CN(c7ccc8c(c7)C(=O)N(C7CCC(=O)NC7=O)C8=O)C6)CC5)cc4)n3)C2)c2ccccc21 (stereo not drawn) [Compound 025, 3-((4-(1-(1-(2-(2,6-dioxopiperidin-3-yl)-1,3-dioxoisoindol-5-yl)azetidin-3-yl)-4-methylpiperidin-4-yl)phenyl)amino)-5-(3-(3-methyl-2-oxo-2,3-dihydro-1H-benzo[d]imidazol-1-yl)piperidin-1-yl)pyrazin-2-carboxamide]
> 1	CC1(c2ccc(Nc3nc(N4CCCC(n5cc6ccccn6c5=O)C4)cnc3C(N)=O)cc2)CCN(C2CN(c3ccc4c(c3)C(=O)N(C3CCC(=O)NC3=O)C4=O)C2)CC1 (stereo not drawn) [Compound 026, 3-((4-(1-(1-(2-(2,6-dioxopiperidin-3-yl)-1,3-dioxoisoindolin-5-yl)azetidin-3-yl)-4-methylpiperidin-4-yl)phenyl)amino)-5-(3-(3-oxoimidazo[1,5-a]pyridin-2(3H)-yl)piperidin-1-yl)pyrazin-2-carboxamide]
> 1	NC(=O)c1ncc(N2CCCC(N3CCN(C4CCCC4)C3=O)C2)nc1Nc1ccc(C2CCN(C3CN(c4ccc5c(c4)C(=O)N(C4CCC(=O)NC4=O)C5=O)C3)CC2)cc1 (stereo not drawn) [Compound 027, 5-(3-(3-cyclopentyl-2-oxyimidazolin-1-yl)piperidin-1-yl)-3-((4-(1-(1-(2-(2,6-dioxopiperidin-3-yl)-1,3-dioxoisoindol-5-yl)azetidin-3-yl)piperidin-4-yl)phenyl)amino) pyrazin-2-carboxamide]
> 1	NC(=O)c1ncc(N2CCCC(N3CCN(C4CCCC4)C3=O)C2)nc1Nc1ccc(C(=O)C2CCN(CC3CCN(c4ccc5c(c4)C(=O)N(C4CCC(=O)NC4=O)C5=O)CC3)CC2)cc1 (stereo not drawn) [Compound 028, 5-(3-(3-cyclopentyl-2-oxoimidazolin-1-yl)piperidin-1-yl)-3-((4-(1-((1-(2-(2,6-dioxopiperidin-3-yl)-1,3-dioxoisoindolin-5-yl)piperidin-4-yl)methyl)piperidin-4-formyl)phenyl)amino)pyrazin-2-carboxamide]
< 1	NC(=O)c1ncc(N2CCCC(N3CCN(C4CCCC4)C3=O)C2)nc1Nc1ccc(N2CCC(C#CCN3CCN(c4ccc5c(c4)C(=O)N(C4CCC(=O)NC4=O)C5=O)CC3)CC2)cc1 (stereo not drawn) [Compound 029, 5-(3-(3-cyclopentyl-2-oxoimidazolin-1-yl)piperidin-1-yl)-3-((4-(4-(3-(4-(2-(2,6-dioxopiperidin-3-yl)-1,3-dioxoisoindolin-5-yl)piperazin-1-yl)propan-1-yne-1-yl)piperidin-1-yl)phenyl)amino)pyrazin-2-carboxamide]
< 1	NC(=O)c1ncc(N2CCCC(N3CCN(C4CCCC4)C3=O)C2)nc1Nc1ccc2c(c1)CCN(CC1CCN(c3ccc4c(c3)C(=O)N(C3CCC(=O)NC3=O)C4=O)CC1)C2 (stereo not drawn) [Compound 030, 5-(3-(3-cyclopentyl-2-oxoimidazolin-1-yl)piperidin-1-yl)-3-((2-((1-(2-(2,6-dioxopiperidin-3-yl)-1,3-dioxoisoindol-5-yl)piperidin-4-yl)methyl)-1,2,3,4-tetrahydroisoquinolin-6-yl)amino)pyrazin-2-carboxamide]
